Here are results for 20 compounds from US10751417B2, “Sustained release delivery systems comprising traceless linkers” (NOVARTIS AG, priority 2017, dated 2020).

A short description of data set [1]: Release study 8-4a: model traceless linker-drug conjugates M1-M19 held in 1×PBS at 37 °C, HPLC-UV/MS. It is filed as physicochemical. The conditions noted are these: 1 mM in 1×PBS, first order fit, rounded to nearest whole day; for half-life at 1 mM: read-out: Calculated stability t1/2, parent (converted). How it is done: 8-4a. Release Study Protocol for M1-M19 Model Traceless Linker-Drug Conjugates In Vitro
In this study a series of model traceless linker-drug conjugates, in which the drug is a low molecular weight amine-containing compound, was held in 1×PBS at 37° C. These reactions were sampled at various timepoints and analyzed to determine concentration of remaining starting compound, as well as concentration of the released amine-containing drug (p-methoxybenzylamine, 2-amino-pyridine, p-methoxyaniline, or N-methyl-p-methoxybenzylamine). Half-lives for the parent degradation and the half-lives of release for the amine-containing drug were calculated.
Method for Estimation of Amine-Containing Drug Release Rates from M1-M19
Each compound M1-M19 was prepared as a 0.1 M stock solution in DMF, as were a set of standard solutions for the released amine-containing drug (4-methoxybenzylamine, 2-aminopyridine, p-methoxyaniline, and N-methyl-p-methoxybenzylamine). A 35 μL aliquot of each solution was added to 3.465 mL of PBS to obtain 1 mM solutions of each conjugate or amine-containing drug. A 150 μL aliquot of each 1 mM solution was dispensed into LCMS vials with a polypropylene insert; 2 vials were prepared for each compound at each time point.
The vials were incubated at 37° C. At each time point (e.g., 0, 1, 5, 7, 14, 21, 28, 35, 49, and 56 days), two vials of each conjugate were removed from the incubator and frozen at −20° C. to avoid further hydrolysis. All samples were thawed and analyzed in one batch after completion of the release study using the analytical HPLC method described below. Each sample was analyzed twice. Control solutions of the amine-containing drugs were prepared prior to analysis and were analyzed as is without prior incubation at 37° C.
Analytical HPLC-MS Conditions for Study 8.4a
HPLC: Thermo Accela HPLC and Autosampler; Autosampler Tray Temperature: 8° C.; Injection Volume: 20 μL; Column: Phenomenex Kinetex C18, 2.1×50 mm, 2.6 μm. Column Temperature: Ambient; Mobile Phases: A=0.1% formic acid in water; B=0.1% formic acid in acetonitrile; Flow Rate: 200 μL/min. Gradient (time/% B): 0/0, 3/0, 10/80, 15/80, 15.1/0, 18/0.
UV: Thermo Accela PDA; Scan Range: 200-400 nm; Wavelength Step: 1 nm; Sample Rate: 20 Hz; Filter Bandwidth: 9 nm; MS: Thermo LTQ XL; Ionization Mode: ESI; Spray Voltage: 0 V at time 0-1 minutes then switched to 4 kV; Capillary Temperature: 250° C.; Divert Valve: LC eluate to waste at time 0-1 minutes then flow diverted MS; Mass Range: 120-800 Da.
The composition of the solution was evaluated at each timepoint using HPLC. Parent, intermediate and released amine-containing drug peaks were assigned by MS detection, and the relative amounts of each species were determined by integration of the peaks from the chromatogram generated using UV absorbance detection at 272 nm. The mean peak area for each compound M1-M19 on Day 0 was assigned a normalized value of 100. For the standard of the amine-containing drug being released (e.g., p-methoxybenzylamine) the mean peak area of each standard was assigned a normalized value of 100. The absolute area under curve for each species detected were compared with these values. Run-to-run peak area reproducibility was typically within 20% on strong signal and considerably worse on weak signals, so normalized signals above 100 likely correspond to values at or approaching 100 (likely 90-100, within experimental error). The percentage of parent and amine-containing drug present in the solution were calculated by dividing the relevant peak area by the mean area that was assigned a normalized value of 100 for the same species and multiplying the result by 100. The percentage of parent and amine-containing drug present in the solution was plotted versus time and the half-life of degradation for the parent and the half-life of release for the amine-containing drug were estimated using curve-fitting software assuming first order kinetics.

A short description of data set [2]: Release study 8-4b: degradation of model conjugates M20-M27 in aqueous DMF:PBS at 37 °C, HPLC-UV/MS. It is filed as physicochemical. The conditions noted are these: first order fit; for half-life at 1 mM: read-out: Calculated stability t1/2, parent (converted). How it is done: 8-4b. M20-M27 In Vitro Release Study
In this study, a series of model traceless linker-drug conjugates M20-M27 was held in aqueous solution at 37° C. These reactions were sampled at various timepoints and analyzed to determine the concentration of remaining starting compound. The analytical method was not optimized to determine concentration of the amine-containing drug. Half-life of degradation for the parent was calculated.
Method for Estimation of Conjugate Degradation Rates for M20-M27
Each compound M20-M27 was prepared as a 0.1 M stock solution in DMF. A 35 μL aliquot of each solution was added to 3.465 mL of 2:1 DMF:PBS (for compound M24: 3:1 DMF:PBS) to obtain 1 mM solutions of each compound M20-M27. The reaction vials were held at 37° C. At each time point (e.g., 0, 1, 3, 8, 14, 21, 28, 35, 49, 56, 70, 92 days) analytical samples were prepared by collecting 150 μL from each 1 mM solution and diluting with 75 μL DMF. Two analytical samples were collected from each reaction vial at each time point and stored at 4° C. All samples were analyzed in one batch after completion of the release study. Each sample was analyzed twice using an analytical HPLC method described below.
The composition of the reaction solution was evaluated at each timepoint using HPLC. Compound M20-M27 peaks were assigned by MS detection, and the integration of the peak from the chromatogram generated using UV absorbance detection at 272 nm was determined. The mean peak area for each compound M20-M27 on Day 0 was assigned a normalized value of 100. The absolute area under the curve at each timepoint was compared with these values. Run-to-run peak area reproducibility was typically within 20% on strong signal and considerably worse on weak signals, so normalized signals above 100 likely correspond to values at or approaching 100 (likely 90-100, within experimental error). The percentage of compounds M20-M27 remaining in the solution were calculated by dividing the relevant peak area by the mean area that was assigned a normalized value of 100 and multiplying the result by 100. The percentage of compound M20-M27 present in the solution was plotted versus time and the half-life of degradation was estimated using curve-fitting software assuming first order kinetics.
Analytical HPLC-MS Conditions for Study 8.4b.
All settings the same as for analytical HPLC-MS conditions for study 8.4a except the following: Mobile Phases: A=5 mM ammonium hydroxide in water; B=5 mM ammonium hydroxide in acetonitrile; Flow Rate: 400 μL/min: Gradient (time/% B): 0/10, 0.5/10, 4/80, 8/80, 8.1/10, 12/10. Divert valve switched at 0.5 minutes after sample injection.

[3] abbreviates: 1 mM in 2:1 DMF:PBS, rounded to nearest whole day.

Consider `CCC(=O)OCC1CN(C(=O)CCNC(=O)OCc2ccccc2)CCN1CC(=O)NCc1ccc(OC)cc1` (centres unmarked) [M1, (4-(3′-(((benzyloxy)carbonyl)amino)propanoyl)-1-(2″-((4″′-methoxybenzyl)amino)-2″-oxoethyl)piperazin-2-yl)methyl propionate], for which the half-life at 1 mM in data set [1] is 37 days.

As to `COc1ccc(CNC(=O)CN2CCN(C(=O)CCNC(=O)OCc3ccccc3)CC2COC(C)=O)cc1` (centres unmarked) [M2, (4-(3′-(((benzyloxy)carbonyl)amino)propanoyl)-1-(2″-((4″′-methoxybenzyl)amino)-2″-oxoethyl)piperazin-2-yl)methyl acetate], in data set [1], the half-life at 1 mM is 23 days.

As to `COCC(=O)OCC1CN(C(=O)CCNC(=O)OCc2ccccc2)CCN1CC(=O)NCc1ccc(OC)cc1` (centres unmarked) [M3, (4-(3′-(((benzyloxy)carbonyl)amino)propanoyl)-1-(2″-((4″′-methoxybenzyl)amino)-2″-oxoethyl)piperazin-2-yl)methyl methoxyacetate], the half-life at 1 mM in data set [1] was 2 days.

Take `COCC(=O)OCC1CN(C(=O)CCNC(=O)OCc2ccccc2)CCN1CC(=O)N(C)Cc1ccc(OC)cc1` (centres unmarked) [M4, (4-(3′-(((benzyloxy)carbonyl)amino)propanoyl)-1-(2″-((4′″-methoxybenzyl)(methyl)amino)-2″-oxoethyl)piperazin-2-yl)methyl 2-methoxyacetate]: the half-life at 1 mM in data set [1] was 2 days.

For the compound `COCC(=O)OCC1CN(C(=O)CCNC(=O)OCc2ccccc2)CCN1CC(=O)Nc1ccc(OC)cc1` (centres unmarked) [M5, (4-(3′-(((benzyloxy)carbonyl)amino)propanoyl)-1-(2′-((4″′-methoxyphenyl)amino)-2″-oxoethyl)piperazin-2-yl)methyl 2″″-methoxyacetate], the half-life at 1 mM in data set [1] is 3 days.

For `COc1ccc(CNC(=O)CN2CCN(C(C)=O)CC2COC(C)=O)cc1` (centres unmarked) [M6, (4-acetyl-1-(2′-((4″-methoxybenzyl)amino)-2′-oxoethyl)piperazin-2-yl)methyl acetate], the half-life at 1 mM in data set [1] is 26 days.

Regarding `COC(=O)C1CN(C(C)=O)CCN1CC(=O)NCc1ccc(OC)cc1` (centres unmarked) [M7, methyl 4-acetyl-1-(2′-((4″-methoxybenzyl)amino)-2′-oxoethyl)piperazine-2-carboxylate], the half-life at 1 mM in data set [1] was 3 days.

In the case of `COC(=O)OCC1CN(C(C)=O)CCN1CC(=O)NCc1ccc(OC)cc1` (centres unmarked) [M8, (4-acetyl-1-(2′-((4″-methoxybenzyl)amino)-2′-oxoethyl)piperazin-2-yl)methyl methyl carbonate], in data set [1], the half-life at 1 mM is 35 days.

With `CNC(=O)OCC1CN(C(C)=O)CCN1CC(=O)NCc1ccc(OC)cc1` (centres unmarked) [M9, 1-(4′-acetyl-1′-(2″-((4″′-methoxybenzyl)amino)-2″-oxoethyl)piperazin-2′-yl)methyl N-methylcarbamate], the “Calculated stability t1/2, parent (d)” value in data set [1] is “No degradation”.

Consider `COc1ccc(CNC(=O)CN2CCN(C(C)=O)CC2COC2CCCCO2)cc1` (centres unmarked) [M10, 2-(4′-acetyl-2′-(((tetrahydro-2″H-pyran-2″-yl)oxy)methyl)piperazin-1′-yl)-N-(4′″-methoxybenzyl)acetamide], for which the “Calculated stability t1/2, parent (d)” value in data set [1] is listed as “No degradation”.

`CC(=O)OCC1CN(C(C)=O)CCN1CC(=O)Nc1ccccn1` (centres unmarked) [M17, 1-(4′-acetyl-1′-(2″-oxo-2″-(pyridin-2′″-ylamino)ethyl)piperazin-2′-yl)methyl acetate]: the half-life at 1 mM in data set [1] is 50 days.

In the case of `CC(=O)OCC1CN(C)CCN1CC(=O)Nc1ccccn1` (centres unmarked) [M18, 1-(4′-methyl-1′-(2″-oxo-2″-(pyridin-2′″-ylamino)ethyl)piperazin-2′-yl)methyl acetate], in data set [1], the half-life at 1 mM is 8 days.

With `CCC1CCN(CC(=O)Nc2ccccn2)C(COC(C)=O)C1` (centres unmarked) [M19, 1-(4′-ethyl-1′-(2″-oxo-2″-(pyridin-2″′-ylamino)ethyl)piperidin-2′-yl)methyl acetate], the half-life at 1 mM in data set [1] is 6 days.

As for `CC[Si](CC)(OCC1CN(C(=O)CCNC(=O)OCc2ccccc2)CCN1CC(=O)NCc1ccc(OC)cc1)OC(C)C` (centres unmarked) [M20, Benzyl N-(3-(3′-(((diethyl(isopropoxy)silyl)oxy)methyl)-4′-(2″-((4′″-methoxybenzyl)amino)-2″-oxoethyl)piperazin-1′-yl)-3-oxopropyl)carbamate], the half-life at 1 mM in data set [2] (setting [3]) was 51 days.

Turning to `CC[Si](CC)(OCC1CN(C(=O)CCNC(=O)OCc2ccccc2)CCN1CC(=O)NCc1ccc(OC)cc1)OC1CCOCC1` (centres unmarked) [M21], the half-life at 1 mM in data set [2] (setting [3]) is 126 days.

For the compound `CC[Si](CC)(OCCOCCOC)OCC1CN(C(=O)CCNC(=O)OCc2ccccc2)CCN1CC(=O)NCc1ccc(OC)cc1` (centres unmarked) [M22], in data set [2] (setting [3]), the half-life at 1 mM was 23 days.

Turning to `CCOCC(C)O[Si](CC)(CC)OCC1CN(C(=O)CCNC(=O)OCc2ccccc2)CCN1CC(=O)NCc1ccc(OC)cc1` (centres unmarked) [M23], in data set [2] (setting [3]), the half-life at 1 mM is 47 days.

For `CC[Si](CC)(OCC(C)C)OCC1CN(C(=O)CCNC(=O)OCc2ccccc2)CCN1CC(=O)NCc1ccc(OC)cc1` (centres unmarked) [M24], the half-life at 1 mM in data set [2] (1 mM in 3:1 DMF:PBS (compound M24)) was 36 days.

Take `CCC(C)O[Si](CC)(CC)OCC1CN(C(=O)CCNC(=O)OCc2ccccc2)CCN1CC(=O)NCc1ccc(OC)cc1` (centres unmarked) [M25]: the half-life at 1 mM in data set [2] (setting [3]) is 80 days.

Turning to `COc1ccc(CNC(=O)CN2CCN(C(=O)CCNC(=O)OCc3ccccc3)CC2CO[Si](OC(C)C)(C(C)C)C(C)C)cc1` (centres unmarked) [M26, benzyl N-(3-(3′-(((isopropoxydiisopropylsilyl)oxy)methyl)-4′-(2″-((4′′′-methoxybenzyl)amino)-2″-oxoethyl)piperazin-1′-yl)-3-oxopropyl)carbamate], the “Calculated stability t1/2, parent (d)” value in data set [2] (setting [3]) is on record as “No degradation”.
